Source: patent publication US11566007B2, “Ras inhibitors” (Revolution Medicines, Inc., priority 2019, dated 2023)

How the values were obtained:
[1] = molecular target: NRAS WT (Homo sapiens (Human), UniProt P01111+P62937); assay: Ras-Raf (BRAF RBD) disruption / FRET / MOA assay, NRAS WT; format: biochemical; conditions: read-out: IC50* NRAS WT FRET data
Protocol: (§1) The purpose of this biochemical assay is to measure the ability of test compounds to facilitate ternary complex formation between a nucleotide-loaded Ras isoform and cyclophilin A; the resulting ternary complex disrupts binding to a BRAF^RBD construct, inhibiting Ras signaling through a RAF effector.
(§2) […]. Compound is present in plate wells as a 10-point 3-fold dilution series starting at a final concentration of 30 μM. After incubation at 25° C. for 3 hours, a mixture of Anti-His Eu-W1024 and anti-GST allophycocyanin is then added to assay sample wells at final concentrations of 10 nM and 50 nM, respectively, and the reaction incubated for an additional 1.5 hours. […] Compounds that facilitate disruption of a Ras:RAF complex are identified as those eliciting a decrease in the TR-FRET ratio relative to DMSO control wells.
(§3) Note—The following protocol describes a procedure for monitoring disruption of K-Ras G12C (GMP-PNP) binding to BRAF^RBD by a compound of the invention. This protocol may also be executed substituting other Ras proteins or nucleotides.
(§4) The purpose of this biochemical assay was to measure the ability of test compounds to facilitate ternary complex formation between a nucleotide-loaded K-Ras isoform and Cyclophilin A; the resulting ternary complex disrupts binding to a BRAF^RBD construct, inhibiting K-Ras signaling through a RAF effector. Data is reported as IC50 values.
as §2, with “Compound was” for “Compound is”, “allophycocyanin was” for “allophycocyanin is”, “a K-Ras:RAF” for “a Ras:RAF”, “complex were” for “complex are”

[2] = molecular target: K-Ras G12C (Homo sapiens (Human), UniProt P01116+P62937, G12C); assay: Ras-Raf (BRAF RBD) disruption / FRET / MOA assay, KRAS G12C; format: biochemical; conditions: KRAS G12C; Ras-Raf disruption/FRET/MOA assay; read-out: IC50* KRAS G12C FRET data
Summary of the method: (§5)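 A 10-point, 3-fold dilution series topping at 30 μM final was incubated 3 h at 25° C with the Ras/cyclophilin A/BRAF RBD mixture.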

[3] = molecular target: KRAS G12D (Homo sapiens (Human), UniProt P01116+P62937, G12D); assay: Ras-Raf (BRAF RBD) disruption / FRET / MOA assay, KRAS G12D; format: biochemical; conditions: Ras-Raf disruption/FRET/MOA assay; class symbols; read-out: KRAS G12D FRET data IC50
Summary of the method: as §5

[4] = molecular target: KRAS Q61H (Homo sapiens (Human), UniProt P01116+P62937, Q61H); assay: Ras-Raf (BRAF RBD) disruption / FRET / MOA assay, KRAS Q61H; format: biochemical; conditions: Ras-Raf disruption/FRET/MOA assay; class symbols; read-out: KRAS Q61H FRET data IC50
Protocol: as §1, §2, §3, §4
as §2, with “Compound was” for “Compound is”, “allophycocyanin was” for “allophycocyanin is”, “a K-Ras:RAF” for “a Ras:RAF”, “complex were” for “complex are”

[5] = molecular target: NRAS Q61R (Homo sapiens (Human), UniProt P01111+P62937, Q61R); assay: Ras-Raf (BRAF RBD) disruption / FRET / MOA assay, NRAS Q61R; format: biochemical; conditions: NRAS Q61R; Ras-Raf disruption/FRET/MOA assay; read-out: IC50* NRAS Q61R FRET data
Protocol: as §1, §2, §3, §4
as §2, with “Compound was” for “Compound is”, “allophycocyanin was” for “allophycocyanin is”, “a K-Ras:RAF” for “a Ras:RAF”, “complex were” for “complex are”

[6] = molecular target: KRAS G12V (Homo sapiens (Human), UniProt P01116+P62937, G12V); assay: Ras-Raf (BRAF RBD) disruption / FRET / MOA assay, KRAS G12V; format: biochemical; conditions: read-out: IC50* KRAS G12V FRET data
Summary of the method: as §5

[7] = molecular target: KRAS G12S (Homo sapiens (Human), UniProt P01116+P62937, G12S); assay: Ras-Raf (BRAF RBD) disruption / FRET / MOA assay, KRAS G12S; format: biochemical; conditions: Ras-Raf disruption/FRET/MOA assay; class symbols; read-out: KRAS G12S FRET data IC50
Summary of the method: as §5

[8] = molecular target: KRAS WT (Homo sapiens (Human), UniProt P01116+P62937); assay: Ras-Raf (BRAF RBD) disruption / FRET / MOA assay, KRAS WT; format: biochemical; conditions: read-out: IC50* KRAS WT FRET data
Summary of the method: as §5

[9] = molecular target: KRAS G13D (Homo sapiens (Human), UniProt P01116+P62937, G13D); assay: Ras-Raf (BRAF RBD) disruption / FRET / MOA assay, KRAS G13D; format: biochemical; conditions: read-out: IC50* KRAS G13D FRET data
Summary of the method: as §5

[10] = molecular target: K-Ras G13C (Homo sapiens (Human), UniProt P01116+P62937, G13C); assay: Ras-Raf (BRAF RBD) disruption / FRET / MOA assay, KRAS G13C; format: biochemical; conditions: KRAS G13C; Ras-Raf disruption/FRET/MOA assay; read-out: IC50* KRAS G13C FRET data
Summary of the method: as §5

[11] = tested on: NCI-H358 cells (K-Ras G12C); assay: Potency assay: pERK in NCI-H358 cells; format: cell-based, human; conditions: Homo sapiens, NCI-H358; H358 KRAS G12C; read-out: pERK EC50
Summary of the method: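 Inhibition of cellular pERK after a 4 h treatment, detected by AlphaLISA or In-Cell Western. IC50 from a four-parameter concentration-response fit.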

[12] = molecular target: NRAS G12C (Homo sapiens (Human), UniProt P01111+P62937, G12C); assay: Ras-Raf (BRAF RBD) disruption / FRET / MOA assay, NRAS G12C; format: biochemical; conditions: read-out: IC50* NRAS G12C FRET data
Summary of the method: as §5

[13] = molecular target: NRAS Q61K (Homo sapiens (Human), UniProt P01111+P62937, Q61K); assay: Ras-Raf (BRAF RBD) disruption / FRET / MOA assay, NRAS Q61K; format: biochemical; conditions: NRAS Q61K; Ras-Raf disruption/FRET/MOA assay; read-out: IC50* NRAS Q61K FRET data
Protocol: as §1, §2, §3, §4
as §2, with “Compound was” for “Compound is”, “allophycocyanin was” for “allophycocyanin is”, “a K-Ras:RAF” for “a Ras:RAF”, “complex were” for “complex are”

Sequence of NRAS Q61K (P01111 whole entry Q61K): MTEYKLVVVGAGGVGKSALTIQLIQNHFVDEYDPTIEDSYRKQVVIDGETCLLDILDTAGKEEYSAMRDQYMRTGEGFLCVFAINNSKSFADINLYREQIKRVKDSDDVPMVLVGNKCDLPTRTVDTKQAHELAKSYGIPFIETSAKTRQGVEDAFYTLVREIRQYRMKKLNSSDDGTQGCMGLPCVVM
Sequence of NRAS Q61K (P62937 whole entry): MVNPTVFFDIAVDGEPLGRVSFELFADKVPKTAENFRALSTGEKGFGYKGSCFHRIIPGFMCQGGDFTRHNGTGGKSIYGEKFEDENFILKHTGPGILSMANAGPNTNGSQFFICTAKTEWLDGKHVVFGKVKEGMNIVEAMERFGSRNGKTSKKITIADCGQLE
Sequence of KRAS G12V (P01116-2 other isoform, or with tags, fused parts or gaps G12V): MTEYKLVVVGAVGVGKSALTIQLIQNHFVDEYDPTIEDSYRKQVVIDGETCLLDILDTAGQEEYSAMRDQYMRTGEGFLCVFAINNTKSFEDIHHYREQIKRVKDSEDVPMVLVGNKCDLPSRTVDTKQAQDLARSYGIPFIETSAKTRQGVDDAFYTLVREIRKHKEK
Sequence of KRAS G12V (P62937 whole entry): as the sequence (P62937 whole entry) above
Sequence of KRAS WT (P01116-2 other isoform, or with tags, fused parts or gaps): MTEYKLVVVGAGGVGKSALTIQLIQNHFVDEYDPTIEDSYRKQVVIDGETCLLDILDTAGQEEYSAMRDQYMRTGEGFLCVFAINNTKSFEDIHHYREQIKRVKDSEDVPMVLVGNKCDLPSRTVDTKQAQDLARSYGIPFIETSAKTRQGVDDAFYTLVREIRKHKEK
Sequence of KRAS WT (P62937 whole entry): as the sequence (P62937 whole entry) above
Sequence of NRAS WT (P01111 whole entry, canonical isoform): as the sequence (P01111 whole entry Q61K) above, with K61Q counted along it
Sequence of NRAS WT (P62937 whole entry, canonical isoform): as the sequence (P62937 whole entry) above
Sequence of KRAS G12D (P01116-2 other isoform, or with tags, fused parts or gaps G12D): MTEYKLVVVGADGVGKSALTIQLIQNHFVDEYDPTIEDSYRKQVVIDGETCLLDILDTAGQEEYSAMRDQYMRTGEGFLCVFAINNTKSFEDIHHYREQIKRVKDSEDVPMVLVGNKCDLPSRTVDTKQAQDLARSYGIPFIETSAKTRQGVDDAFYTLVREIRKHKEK
Sequence of KRAS G12D (P62937 whole entry): as the sequence (P62937 whole entry) above
Sequence of KRAS Q61H (P01116-2 other isoform, or with tags, fused parts or gaps Q61H): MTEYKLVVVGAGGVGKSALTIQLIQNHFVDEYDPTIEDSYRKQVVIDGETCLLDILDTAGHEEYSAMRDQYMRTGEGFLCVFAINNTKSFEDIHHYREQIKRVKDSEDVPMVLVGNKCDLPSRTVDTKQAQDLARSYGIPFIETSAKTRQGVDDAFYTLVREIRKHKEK
Sequence of KRAS Q61H (P62937 whole entry): as the sequence (P62937 whole entry) above
Sequence of K-Ras G13C (P01116-2 other isoform, or with tags, fused parts or gaps G13C): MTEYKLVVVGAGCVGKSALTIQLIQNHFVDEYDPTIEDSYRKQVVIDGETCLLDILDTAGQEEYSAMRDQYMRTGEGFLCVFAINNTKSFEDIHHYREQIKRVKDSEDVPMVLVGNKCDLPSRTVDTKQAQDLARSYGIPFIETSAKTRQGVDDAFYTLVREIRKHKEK
Sequence of K-Ras G13C (P62937 whole entry): as the sequence (P62937 whole entry) above
Sequence of NRAS Q61R (P01111 whole entry Q61R): as the sequence (P01111 whole entry Q61K) above, with K61R counted along it
Sequence of NRAS Q61R (P62937 whole entry): as the sequence (P62937 whole entry) above
Sequence of NRAS G12C (P01111 whole entry G12C): as the sequence (P01111 whole entry Q61K) above, with G12C, K61Q counted along it
Sequence of NRAS G12C (P62937 whole entry): as the sequence (P62937 whole entry) above
Sequence of K-Ras G12C (P01116-2 other isoform, or with tags, fused parts or gaps G12C): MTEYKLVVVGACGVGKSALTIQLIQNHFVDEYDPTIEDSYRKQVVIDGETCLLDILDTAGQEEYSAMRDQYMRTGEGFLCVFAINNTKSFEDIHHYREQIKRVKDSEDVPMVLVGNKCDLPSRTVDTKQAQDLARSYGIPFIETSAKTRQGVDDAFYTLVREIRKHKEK
Sequence of K-Ras G12C (P62937 whole entry): as the sequence (P62937 whole entry) above
Sequence of KRAS G13D (P01116-2 other isoform, or with tags, fused parts or gaps G13D): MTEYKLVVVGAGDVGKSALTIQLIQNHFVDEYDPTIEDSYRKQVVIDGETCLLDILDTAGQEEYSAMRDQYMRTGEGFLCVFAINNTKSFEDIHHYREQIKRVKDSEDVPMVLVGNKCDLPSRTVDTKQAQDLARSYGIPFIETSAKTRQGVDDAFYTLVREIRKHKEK
Sequence of KRAS G13D (P62937 whole entry): as the sequence (P62937 whole entry) above
Sequence of KRAS G12S (P01116-2 other isoform, or with tags, fused parts or gaps G12S): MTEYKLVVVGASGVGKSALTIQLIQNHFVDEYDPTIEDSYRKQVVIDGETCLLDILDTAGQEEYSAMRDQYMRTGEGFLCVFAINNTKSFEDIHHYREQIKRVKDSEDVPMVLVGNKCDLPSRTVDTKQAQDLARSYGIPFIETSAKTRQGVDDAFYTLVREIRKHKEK
Sequence of KRAS G12S (P62937 whole entry): as the sequence (P62937 whole entry) above

| Structure (SMILES) | IC50 [1] [nM] | IC50 [2] [nM] | IC50 [3] [nM] | IC50 [4] [nM] | IC50 [5] [nM] | IC50 [6] [nM] | IC50 [7] [nM] | IC50 [8] [nM] | IC50 [9] [nM] | IC50 [10] [nM] | EC50 [11] [nM] | IC50 [12] [nM] | IC50 [13] [nM] |
| --- | --- | --- | --- | --- | --- | --- | --- | --- | --- | --- | --- | --- | --- |
| CO[C@@H](C)c1ncccc1-c1c2c3cc(ccc3n1CC(F)(F)F)-c1cc(cc(C(F)F)c1)C[C@H](NC(=O)[C@H](C(C)C)N(C)C(=O)[C@H]1CCN(C(=O)C#CC(C)(C)N3CCC3)C1)C(=O)N1CCC[C@H](N1)C(=O)OCC(C)(C)C2 (atropisomer, axis not shown) [Example A370] | 1000 to 10000 | 10 to 100 | 1000 to 10000 | 1000 to 10000 | 1000 to 10000 | 1000 to 10000 | 1000 to 10000 | 1000 to 10000 | 1000 to 10000 | 100 to 1000 | < 5000 | 10 to 100 | 1000 to 10000 |
| C=CC(=O)N1CC[C@H](C(=O)N(C)[C@H](C(=O)N[C@H]2C[C@H]3CN(CCO3)c3ccc4c(c3)c(c(-c3cccnc3[C@H](C)OC)n4CC)CC(C)(C)COC(=O)[C@@H]3CCCN(N3)C2=O)C(C)C)C1 (atropisomer, axis not shown) [Example A378] | 1000 to 10000 | 100 to 1000 | > 10000 | > 10000 | > 10000 | 1000 to 10000 | 1000 to 10000 | 1000 to 10000 | > 10000 | 1000 to 10000 | < 5000 | 100 to 1000 | > 10000 |
| CCn1c(-c2cccnc2[C@H](C)OC)c2c3cc(ccc31)-c1cccc(c1)C[C@H](NC(=O)[C@H](C1CCCC1)N(C)C(=O)[C@@H]1CN(C(=O)C#CC(C)(C)N(C)C)C[C@@H]1C)C(=O)N1CCC[C@H](N1)C(=O)OCC(C)(C)C2 (atropisomer, axis not shown) [Example A391] | 1000 to 10000 | < 10 | > 10000 | 1000 to 10000 | 1000 to 10000 | 1000 to 10000 | 1000 to 10000 | 1000 to 10000 | 1000 to 10000 | 1000 to 10000 | < 5000 | < 10 | 1000 to 10000 |
| C=CC(=O)N1CC[C@H](C(=O)N(C)[C@H](C(=O)N[C@H]2CC3=CCCN(C3)c3ccc4c(c3)c(c(-c3cccnc3[C@H](C)OC)n4CC)CC(C)(C)COC(=O)[C@@H]3CCCN(N3)C2=O)C(C)C)C1 (atropisomer, axis not shown) [Example A486] | > 10000 | 100 to 1000 | > 10000 | > 10000 | > 10000 | > 10000 | > 10000 | > 10000 | > 10000 | 1000 to 10000 | < 5000 | 100 to 1000 | > 10000 |
| CO[C@@H](C)c1ncc(N2CCN(C)CC2)cc1-c1c2c3cc(ccc3n1CC(F)(F)F)-c1cccc(c1)C[C@H](NC(=O)[C@H](C(C)C)N(C)C(=O)C1(F)CCN(C(=O)C#CC(C)(C)N(C)C)CC1)C(=O)N1CCC[C@H](N1)C(=O)OCC(C)(C)C2 (atropisomer, axis not shown) [Example A542, 1-(4-(dimethylamino)-4-methylpent-2-ynoyl)-4-fluoro-N-((2S)-1-(((6^3S,4S)-1^2-(2-((S)-1-methoxyethyl)-5-(4-methylpiperazin-1-yl)pyridin-3-yl)-10,10-dimethyl-5,7-dioxo-1^1-(2,2,2-trifluoroethyl)-6^1,6^2,6^3,6^4,6^5,6^6-hexahydro-1^1H-8-oxa-1(5,3)-indola-6(1,3)-pyridazina-2(1,3)-benzenacycloundecaphane-4-yl)amino)-3-methyl-1-oxobutan-2-yl)-N-methylpiperidine-4-carboxamide] | 10 to 100 | < 10 | 100 to 1000 | 10 to 100 | 10 to 100 | 10 to 100 | 10 to 100 | 10 to 100 | 10 to 100 | < 10 | < 5000 | < 10 | 10 to 100 |
| CO[C@@H](C)c1ncccc1-c1c2c3cc(ccc3n1CC(F)(F)F)-c1csc(n1)C[C@H](NC(=O)[C@H](C(C)C)N(C)C(=O)N1C[C@@H]3OCCN(C(=O)/C=C/CF)[C@@H]3C1)C(=O)N1CCC[C@H](N1)C(=O)OCC(C)(C)C2 (atropisomer, axis not shown) [Example A571] | 100 to 1000 | 100 to 1000 | 1000 to 10000 | 100 to 1000 | 100 to 1000 | 100 to 1000 | 100 to 1000 | 100 to 1000 | 1000 to 10000 | 10 to 100 | < 5000 | 100 to 1000 | 100 to 1000 |
| CO[C@@H](C)c1ncccc1-c1c2c3cc(ccc3n1CC(F)(F)F)-c1csc(n1)C[C@H](NC(=O)[C@H](C(C)C)N(C)C(=O)N1C[C@@H]3OCCN(C(=O)/C=C/C(F)F)[C@@H]3C1)C(=O)N1CCC[C@H](N1)C(=O)OCC(C)(C)C2 (atropisomer, axis not shown) [Example A572] | 100 to 1000 | 10 to 100 | 1000 to 10000 | 100 to 1000 | 100 to 1000 | 100 to 1000 | 100 to 1000 | 100 to 1000 | 1000 to 10000 | 10 to 100 | < 5000 | 10 to 100 | 100 to 1000 |
| CO[C@@H](C)c1ncccc1-c1c2c3cc(ccc3n1CC(F)(F)F)-c1csc(n1)C[C@H](NC(=O)[C@H](C(C)C)N(C)C(=O)N1C[C@@H]3OCCN(C(=O)/C=C/CN(C)C)[C@@H]3C1)C(=O)N1CCC[C@H](N1)C(=O)OCC(C)(C)C2 (atropisomer, axis not shown) [Example A573] | 100 to 1000 | 10 to 100 | 1000 to 10000 | 100 to 1000 | 100 to 1000 | 1000 to 10000 | 100 to 1000 | 100 to 1000 | 100 to 1000 | 10 to 100 | < 5000 | 10 to 100 | 100 to 1000 |
| C=CC(=O)N1CC[C@H](C(=O)N(C)C(C(=O)N[C@H]2C[C@H]3CN(CCO3)c3ccc4c(c3)c(c(-c3cccnc3[C@H](C)OC)n4CC)CC(C)(C)COC(=O)[C@@H]3CCCN(N3)C2=O)C(C)C)C1 (mixture of isomers) [Example A507] | 1000 to 10000 | 100 to 1000 | > 10000 | > 10000 | > 10000 | 1000 to 10000 | 1000 to 10000 | > 10000 | > 10000 | 1000 to 10000 |  | 100 to 1000 | > 10000 |
